Data: patent US8568987B2, “Chemotaxis diagnostic” (Glycotope Biotechnology GmbH, priority 2000, dated 2013)

What was measured:
[1] = test system: neutrophilic granulocytes (LECAM-1 surface expression); assay: Granulocyte chemotaxis test from leukocyte-rich plasma: LECAM-1 surface expression by flow-through cytometry; format: cell-based, human; details: 5×10^−8 M fMLP vs negative control containing PBS; FIG. 3A/3B
Experimental: (§1) 1 ml of Ficoll (Ficoll separation medium, from Seromed, order No. L6113 (endotoxin-low)) is initially introduced in an Eppendorf tube and 1 ml of fresh (preferably not older than 8 hours) heparinized whole blood (endotoxin-low heparin) is carefully overlaid at room temperature. The mixture is allowed to stand at room temperature until a marked phase separation can be observed. After a spontaneous sedimentation, normally lasting for about 40 minutes at room temperature, the leukocytes and platelets remain above the Ficoll phase while the erythrocytes have sedimented to the bottom. The sinking of the erythrocytes occurs quite suddenly after from approx. 30 to 40 minutes. […]
(§2) 20 μl of LDS (laser dye LDS 751, from Exiton or Styryl 8, from Lambda Physik, Göttingen; for excluding the erythrocytes, 1 mg/ml, prediluted 1:50 in PBS) are added to the solution. […] The measurement is stopped after in each case 1000 or 2000 latex particles have been recorded, such that approx. 5000-15 000 neutrophils have been counted. […] The sheath fluid employed is FACS Flow (from Becton Dickinson, order No. 342003) or another carrier fluid having a low intrinsic fluorescence. […] The calibration and quality control for fluorescence measurements (intensity per cell) are carried out using the Calibrites. […]

[2] = test system: neutrophilic granulocytes; assay: Granulocyte chemotaxis test: number of cells migrated through porous membrane, counted against beads by flow-through cytometry; format: cell-based, human; details: 5×10^−8 M fMLP vs negative control containing PBS; FIG. 3B
Experimental: as §1, §2

Substance: N-formyl-Met-Leu-Phe [fMLP]
- decrease in the surface expression of the cell adhesion molecule LECAM-1 [1]: about one order of magnitude
- number of neutrophilic granulocyte cells which have migrated through the membrane, in relation to constant number of beads [2]: marked increase
